Consider 18 molecules from ChEMBL document CHEMBL1157193, “Synthesis and anti-Trypanosoma cruzi activity of derivatives from nor-lapachones and lapachones” (Bioorg Med Chem, 2008).

Each structure is given as a SMILES string.

In the assay the test system is Trypanosoma cruzi. The assay can be described thus: Trypanocidal activity against Trypanosoma cruzi Y blood stream trypomastigotes after 24 hrs. Format: functional, organism-based.
As usually defined, the IC50 is the concentration at which inhibition is half-maximal. On to `CC1(C)CC2=C(O1)C(=O)c1ccccc1C2=O`, for which the IC50 was over 4800 µM.

The molecule `CC1(C)OC2=C(C(=O)C(=O)c3ccccc32)C1Nc1cccc(Cl)c1` (stereo not drawn) gave an IC50 of 333 µM.

On to `CC1(C)OC2=C(C(=O)C(=O)c3ccccc32)C1Nc1cccc([N+](=O)[O-])c1` (stereo not drawn), for which the IC50 is 86.3 µM.

`CC1(C)OC2=C(C(=O)C(=O)c3ccccc32)C1Nc1ccc(Br)cc1` (stereo not drawn) had an IC50 of 952 µM.

With `CC1(C)OC2=C(C(=O)c3ccccc3C2=O)C1N=[N+]=[N-]` (stereo not drawn), inhibition was half-maximal at 179 µM (IC50).

The molecule `CC1(C)OC2=C(C(=O)C(=O)c3ccccc32)C1Nc1cccc(F)c1` (stereo not drawn) returned an IC50 of over 4000 µM.

With `CC1(C)OC2=C(C(=O)C(=O)c3ccccc32)C1Nc1ccc(Cl)cc1` (stereo not drawn), the IC50 was found to be 384 µM.

`CC1(C)CC2=C(O1)C1(CO1)c1ccccc1C2=O` (stereo not drawn): the IC50 was over 4000 µM.

The molecule `CC1(C)CC(Nc2ccccc2)C2=C(O1)C(=O)c1ccccc1C2=O` (stereo not drawn) returned an IC50 of 342 µM.

The molecule `CC1(C)OC2=C(C(=O)C(=O)c3ccccc32)C1O` (stereo not drawn) registered a 50% inhibitory concentration (IC50) of 212 µM.

The molecule `CC(C)=CCC1=C(O)C(=O)c2ccccc2C1=O` [LAPACHOL] showed an IC50 of 411 µM.

With `COc1ccc(NC2C3=C(OC2(C)C)c2ccccc2C(=O)C3=O)cc1` (stereo not drawn), the IC50 worked out at 88.2 µM.

Molecule `CC1(C)OC2=C(C(=O)C(=O)c3ccccc32)C1Nc1ccc(F)cc1` (stereo not drawn) displayed an IC50 of 2520 µM.

The molecule `Cc1ccc(C)c(NC2C3=C(OC2(C)C)c2ccccc2C(=O)C3=O)c1` (stereo not drawn) yielded an IC50 of 1760 µM.

In turn, `CC1(C)OC2=C(C(=O)C(=O)c3ccccc32)C1Nc1cccc(Br)c1` (stereo not drawn) gave a 50% inhibitory concentration (IC50) of 141 µM.

`CC1(C)OC2=C(C(=O)C(=O)c3ccccc32)C1Nc1ccc([N+](=O)[O-])cc1` (stereo not drawn) returned an IC50 of 857 µM.

`CC1(C)CCC2=C(O1)C(=O)c1ccccc1C2=O` [ALPHA-LAPACHONE]: the IC50 was over 4800 µM.

Regarding `CC1(C)OC2=C(C(=O)c3ccccc3C2=O)C1Nc1ccccc1` (stereo not drawn), the IC50 is over 4000 µM.
